Experimental findings from patent US20010044445A1, “AZOLE INHIBITORS OF CYTOKINE PRODUCTION” (priority 1999, published 2001) are described below.

This test concerns Human peripheral blood mononuclear cells. The test is described as follows: Human Concanavalin-A Proliferation Assay (Con HU Assay). The class given is cell-based. As to conditions: concanavalin-A stimulated human PBMC; for IC50: tritiated thymidine. On the procedure:
Human peripheral blood mononuclear cells were cultured in RPMI 1640 medium supplemented with 10 μg/ml gentamicin, 50 μM 2-mercaptoethanol, 1X MEM non-essential amino acids (Sigma Chemical Co., St. Louis, Mo.), 100 U/ml sodium penicillin G, 100 μg/ml streptomycin sulfate, 2 mM L-glutamine, 1 mM sodium pyruvate (Life Technologies, Grand Island, N.Y.) and 10% fetal bovine serum (Hyclone, Logan, Utah) at 37° C. with 5% CO2.
The procedure in Current Protocols in Immunology, Volume 1, Published by the Greene Publishing Associates and John Wiley & Sons, Inc, Edited by Richard Coico, 1994, hereby incorporated by reference, was followed. Briefly, 50 ml of blood from human volunteers was collected in heparinized syringes and mixed. Blood was diluted 1:1 in Dulbecco's phosphate buffered saline (D-PBS) (Life Technologies, Grand Island, N.Y.) and mixed. PBS-blood mixture was overlaid into 50 ml centrifuge tubes containing 15 ml Histopaque 1077 (Sigma Chemical Co., St. Louis, Mo.) and centrifuged at 500 X G for 30 minutes at room temperature. Cells at the interface from each Histopaque tube were removed and mixed with 5 ml of D-PBS. Each cell suspension was diluted to 50 ml with D-PBS, mixed and centrifuged at 400 X G for 15 minutes at room temperature. After most of the supernatant was removed, cells were resuspended to 40 ml with D-PBS per tube (2 tubes per donor). Cells were centrifuged at 400 X G for 10 minutes at room temperature. Pellets were resuspended in 10 ml of supplemented RPMI 1640 and cell number determined with a Coulter counter. Cells were diluted to a concentration of 0.5×10^6 cells per mL.
The procedure in Current Protocols in Immunology, Volume 1, Published by the Greene Publishing Associates and John Wiley & Sons, Inc, Edited by Richard Coico, 1994, hereby incorporated by reference, was followed. Briefly, test compounds were added to appropriate wells on 96-well tissue culture plates (Corning Glass Works, Corning, N.Y.) in 20 µl of supplemented RPMI 1640. Human peripheral blood mononuclear cells were added to each well in 100 μl volumes (final cell concentration equal to 50,000 cells per well). After 15 minutes, 100 μl of 5 μg/ml concanavalin-A (Sigma Chemical Co., St. Louis, Mo.) in supplemented RPMI 1640 was added to a final concentration of 2.5 μg/ml. Plates were incubated for 3 days at 37° C. with 5% CO2. On day 3, plates were pulsed with 0.5 μCi/well tritiated thymidine (New England Nuclear, Boston, Mass.). After 6 hours, plates were harvested on a Tomatec 96-well havester (Orange, Conn.). Glass filter mats were counted on a Matrix 9600 direct beta counter (Packard, Meriden, Conn.).

The mark [1] stands for this setting: concentration 100 μm (in parentheses in the cell), 3 days.

The structures appear in SMILES notation.

`Cn1ccc(-c2cc(C(F)(F)F)nn2-c2ccc(NC(=O)c3ccncc3F)cc2)c1` [Example 344, 3-fluoro-N-(4-(5-(1-methyl-1H-pyrrol-3-yl)-3-(trifluoromethyl)-1H-pyrazol-1-yl)phenyl)isonicotinamide]: the IC50 (Homo sapiens, PBMC) is 251 nM.

On to `Fc1ccc(/N=C/c2ccc(-n3nc(C(F)(F)F)cc3C(F)(F)F)cc2)c(F)c1` [Example 97, (E)-N-[4-[3,5-bis(trifluoromethyl)-1H-pyrazol-1-yl]phenylmethylene]-2,4-difluorobenzenamine], for which, for the setting “Homo sapiens, PBMC, 72 h, concentration 10 μm (in parentheses in the cell), 3 days, read-out: % Inhibition of proliferation (at concentrations of 1,10, or 100 μm)”, the inhibition at 10 µM was determined as 20%.

`O=C(Nc1ccc(-n2nc(C(F)(F)F)cc2-c2ccco2)cc1)c1ccccc1F` [Example 301, 2-fluoro-N-(4-(5-(2-furyl)-3-(trifluoromethyl)-1H-pyrazol-1-yl)phenyl)benzamide] yielded an IC50 (Homo sapiens, PBMC) of 232 nM.

The compound `O=C(Nc1ccc(-n2nc(C(F)(F)F)cc2C(F)(F)F)cc1)c1cccc2ccccc12` [Example 66, N-[4-[3,5-bis(trifluoromethyl)-1H-pyrazol-1-yl]phenyl]-1-naphthylenecarboxamide] had a concentration for half-maximal inhibition (IC50) of 1040 nM. Also, the “% Inhibition of proliferation (at concentrations of 1,10, or 100 μm)” value (shortened to “% Inhibition of proliferation”) under setting [1] is on record as 97(100) %.

For the setting “Homo sapiens, PBMC”, `N#Cc1cc(C(F)(F)F)nn1-c1ccc(NC(=O)c2ccccc2F)cc1` [Example 300, N-{4-[5-cyano-3-(trifluoromethyl)-1H-pyrazol-1-yl]phenyl}-2-fluorobenzamide] came in with an IC50 of 79 nM.

For the compound `CC(C)(C)OC(=O)N1CCC(C(=O)Nc2ccc(-n3nc(C(F)(F)F)cc3C(F)(F)F)cc2)CC1` [Example 120, 1,1-Dimethylethyl 4-[[[4-[3,5-bis(trifluoromethyl)-1H-pyrazol-1-yl]phenyl]amino]carbonyl]-1-piperidinecarboxylate], the inhibition at 100 µM (Homo sapiens, PBMC, 72 h, concentration 100 μm (in parentheses in the cell), 3 days, read-out: % Inhibition of proliferation (at concentrations of 1,10, or 100 μm)) was found to be 100%. Moreover, the half-maximal inhibitory concentration (IC50) (Homo sapiens, PBMC) was 488 nM.

On to `O=C1CCC(C(=O)Nc2ccc(-n3nc(C(F)(F)F)cc3C(F)(F)F)cc2)N1` (stereo not shown) [Example 255, N-[4-[3,5-bis(trifluoromethyl)-1H-pyrazol-1-yl]phenyl]-5-oxo-2-pyrrolidinecarboxamide], for which the inhibition at 1 µM (Homo sapiens, PBMC, 72 h, concentration 1 μm (in parentheses in the cell), 3 days, read-out: % Inhibition of proliferation (at concentrations of 1,10, or 100 μm)) is 12%.

As to `Cc1nnsc1C(=O)Nc1ccc(-n2nc(-c3cccnc3)cc2C#N)cc1` [Example 331, N-(4-(5-cyano-3-(3-pyridinyl)-1H-pyrazol-1-yl)phenyl)-4-methyl-1,2,3-thiadiazole-5-carboxamide], where the note is “Homo sapiens, PBMC”, the IC50 is 220 nM.

In turn, `O=C(Nc1ccc(-n2nc(C(F)(F)F)cc2-c2cccs2)cc1)c1ccccc1F` [Example 308, 2-fluoro-N-(4-(5-(2-thienyl)-3-(trifluoromethyl)-1H-pyrazol-1-yl)phenyl)benzamide] came in with a half-inhibitory concentration (IC50) (Homo sapiens, PBMC) of 309 nM.

As to `CCCCCCCc1ccc(C(=O)Nc2ccc(-n3nc(C(F)(F)F)cc3C(F)(F)F)cc2)cc1` [Example 111, N-[4-[3,5-bis(trifluoromethyl)-1H-pyrazol-1-yl]phenyl]-4-heptybenzamide], 41000 nM corresponded to half-maximal inhibition (IC50). Besides, the “% Inhibition of proliferation” value under setting [1] is on record as 76(100) %.

Under “Homo sapiens, PBMC”, `O=C(Nc1ccc(-n2nc(C(F)(F)F)cc2[N+](=O)[O-])cc1)c1ccncc1F` [Example 333, 3-fluoro-N-(4-(5-nitro-3-(trifluoromethyl)-1H-pyrazol-1-yl)phenyl)isonicotinamide] returned a half-inhibitory concentration (IC50) of 410 nM.

Regarding `COc1ccc(C(=O)Nc2ccc(-n3nc(C(F)(F)F)cc3C(F)(F)F)cc2)cc1OC` [Example 98, N-[4-[3,5-bis(trifluoromethyl)-1H-pyrazol-1-yl]phenyl]-3-4-dimethoxybenzamide], the half-inhibitory concentration (IC50) came to 4920 nM. In addition, the “% Inhibition of proliferation” value under setting [1] is reported as 94(100) %.

Turning to `O=C(CCCNC(=O)OCc1ccccc1)Nc1ccc(-n2nc(C(F)(F)F)cc2C(F)(F)F)cc1` [Example 158], the “% Inhibition of proliferation” value (concentration 1 μm (in parentheses in the cell), 3 days) is 30(1) %.

`O=C(Nc1ccc(-n2nc(C(F)(F)F)cc2C(F)(F)F)cc1)c1ccc(O)c(Br)c1` [Example 222] gave a half-inhibitory concentration (IC50) of 760 nM. Further, the “% Inhibition of proliferation” value (concentration 10 μm (in parentheses in the cell), 3 days) is 100(10) %.
